Experimental data from patent US9028887B2, “Method improve spatial memory via pterostilbene administration” (The United States of America, as represented by the …, priority 2007, dated 2015).

Assays:
[1] = system: 19-month-old male Fischer 344 rats; assay: Morris Water Maze, working memory version, in aged rats on pterostilbene diet; assay type: in vivo, rat; settings: for distance to find the platform, Trial 1 vs Trial 2: days 3 and 4; for latency to find the platform, Trial 1 vs Trial 2: days 3 and 4, ninth week
Excerpt: Forty-two 19-month-old male Fischer 344 rats were obtained from the NIA colony (Harlan Sprague Dawley, Indianapolis, Ind.). The rats were individually housed in stainless steel mesh suspended cages, provided food and water ad libitum, and maintained on a 12-hour light/dark cycle. The rats were given one week to adjust to their new environment, after which time they were weight matched and then randomly placed on one of three diets for 12-13 weeks total (n=14/group): control, low dose pterostilbene (0.004%, equivalent to 2.5 mg/kg body weight), or high dose pterostilbene (0.016%, equivalent to 10 mg/kg body weight). All animals were observed daily for clinical signs of disease.
The pterostilbene diets were prepared at Harlan Teklad (Madison, Wis.) by adding crystalline pterostilbene to the control diet, of 40 mg/kg diet, 0.004% w/w for low dose, 160 mg/kg diet, 0.016% w/w for high dose. The amount of corn in the control diet was adjusted to compensate for the added volume of the pterostilbene. The rats were maintained on either the control or pterostilbene diet for eight weeks before motor testing and nine weeks before cognitive testing at 21 months.
The Morris Water Maze (MWM) is a method to test spatial learning and memory of subjects. Developed by Richard Morris, the MWM is an age and diet sensitive learning paradigm that requires a subject to locate a hidden platform (10 cm in diameter) positioned below the surface (2 cm) of a circular pool of water (134 cm in diameter×50 cm in height, maintained at 23° C.) based on distal cues, and to remember its location from the previous trial. Accurate navigation is rewarded with escape from the water onto the platform, for which the subject uses distal cues such as posters, the experimenter, a computer, cage racks, to effectively locate. The working memory version of the MWM (Brandeis et al., 1989. Int J Neurosci. 48:29-69 Morris R., 1984. J Neurosci Methods. 11; 47-60.) was performed daily for four consecutive days during the ninth week of treatment, with a morning and an afternoon session, two trials each session, with a 10 minute inter-trial interval between the two trials. Rats were tested in a random manner, with the restriction that one subject from each group be tested in succession. At the beginning of each trial, the subject was gently immersed in the water at one of four randomized start locations. […] Once the subject reached the platform, it remained there for 15 sec (Trial 1; reference memory or acquisition trial). The subject was returned to its home cage between trials (10 min). Trial 2 (the working memory or retrieval trial) used the same platform location and start position as Trial 1. Performances were videotaped and analyzed with image tracking software (HVS Image, UK), which allows measurements of latency (sec) time to find the platform), path length (cm), and swimming speed (cm/sec; […]). A detailed description of the maze and the paradigm used is disclosed in Shukitt-Hale et al., 1998. Experimental Gerontology, 33:615-624, and incorporated herein by reference.

cyclooxygenase-1 = cyclooxygenase-1 (Homo sapiens, UniProt P23219); settings: Rimando et al., 2002; cited from earlier work
cyclooxygenase-1, sequence (P23219 24-599, species assumed): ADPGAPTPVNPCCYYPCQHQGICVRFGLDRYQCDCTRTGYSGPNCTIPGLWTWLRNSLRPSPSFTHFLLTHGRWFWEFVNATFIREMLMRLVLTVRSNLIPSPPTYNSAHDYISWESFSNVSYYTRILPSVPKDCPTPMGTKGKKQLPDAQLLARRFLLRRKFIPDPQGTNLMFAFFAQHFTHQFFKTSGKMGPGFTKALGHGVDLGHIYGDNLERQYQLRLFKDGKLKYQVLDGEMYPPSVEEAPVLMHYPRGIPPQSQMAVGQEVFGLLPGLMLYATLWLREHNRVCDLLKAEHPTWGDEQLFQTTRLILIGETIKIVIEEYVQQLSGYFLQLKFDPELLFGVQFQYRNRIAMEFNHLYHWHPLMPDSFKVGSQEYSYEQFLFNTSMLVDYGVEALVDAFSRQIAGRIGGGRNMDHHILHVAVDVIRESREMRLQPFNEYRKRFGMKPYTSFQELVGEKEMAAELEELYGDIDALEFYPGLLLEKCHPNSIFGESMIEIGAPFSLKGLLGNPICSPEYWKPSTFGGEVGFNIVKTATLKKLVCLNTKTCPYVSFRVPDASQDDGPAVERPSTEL

cyclooxygenase-2 = target: T1, cyclooxygenase-2 (Homo sapiens, UniProt P35354); settings: Rimando et al., 2002; cited from earlier work
T1 sequence (P35354 18-604): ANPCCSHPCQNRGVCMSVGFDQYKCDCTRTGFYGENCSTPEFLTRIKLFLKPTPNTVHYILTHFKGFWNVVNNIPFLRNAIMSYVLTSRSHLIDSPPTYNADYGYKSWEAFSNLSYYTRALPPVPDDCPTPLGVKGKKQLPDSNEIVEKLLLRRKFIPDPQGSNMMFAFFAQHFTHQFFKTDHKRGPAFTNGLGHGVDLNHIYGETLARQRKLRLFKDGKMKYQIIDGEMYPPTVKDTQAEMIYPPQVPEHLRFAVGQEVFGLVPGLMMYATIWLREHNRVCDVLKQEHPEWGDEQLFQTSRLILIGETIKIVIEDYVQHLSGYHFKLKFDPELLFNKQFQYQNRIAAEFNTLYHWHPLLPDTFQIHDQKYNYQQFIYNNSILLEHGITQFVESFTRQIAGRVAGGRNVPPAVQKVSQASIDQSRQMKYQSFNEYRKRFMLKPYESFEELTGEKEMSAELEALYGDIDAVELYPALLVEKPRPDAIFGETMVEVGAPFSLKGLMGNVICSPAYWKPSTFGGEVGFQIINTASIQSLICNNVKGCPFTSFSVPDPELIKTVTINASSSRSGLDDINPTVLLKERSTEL

[2] = target: T2, peroxisome proliferator-activated alpha isoform, (PPARα) (Homo sapiens, UniProt Q07869); settings: Rimando et al., 2005; cited from earlier work
T2 sequence (Q07869 1-468): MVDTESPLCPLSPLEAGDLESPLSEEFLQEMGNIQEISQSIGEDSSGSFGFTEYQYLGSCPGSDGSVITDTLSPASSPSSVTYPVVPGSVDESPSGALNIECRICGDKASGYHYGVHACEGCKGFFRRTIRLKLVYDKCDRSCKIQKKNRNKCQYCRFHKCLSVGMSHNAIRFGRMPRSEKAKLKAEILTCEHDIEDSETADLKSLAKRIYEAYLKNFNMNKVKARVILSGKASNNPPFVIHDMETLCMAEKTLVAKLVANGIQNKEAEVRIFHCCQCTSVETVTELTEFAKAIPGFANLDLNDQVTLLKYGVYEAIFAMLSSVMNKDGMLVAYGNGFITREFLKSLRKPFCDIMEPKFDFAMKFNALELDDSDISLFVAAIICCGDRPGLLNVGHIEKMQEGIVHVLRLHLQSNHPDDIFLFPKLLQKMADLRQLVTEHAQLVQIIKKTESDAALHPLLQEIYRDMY

[3] = system: inducible nitric oxide synthase (iNOS); settings: HT-29 human adenocarcinoma cell lines; Suh et al., 2007; cited from earlier work
[4] = compared with resveratrol; Rimando et al., 2002; Stivala et al., 2001; cited from earlier work
[5] = high dose diet 0.016% (10 mg/kg body weight)

## COc1cc(/C=C/c2ccc(O)cc2)cc(OC)c1 [pterostilbene, trans-3,5-dimethoxy-4′-hydroxystilbene]
[1]; Trial 1 or Trial 2, low and high dose vs control diet
  latency or distance to find the platform between the diet groups: no differences in latency or distance to find the platform
[1]; [5]
  distance to find the platform, Trial 1 vs Trial 2: significant (p<0.05) differences in distance
  latency to find the platform, Trial 1 vs Trial 2: significant (p<0.05) difference in latency
[1]; low dose diet 0.004% (2.5 mg/kg body weight)
  distance to find the platform, Trial 1 vs Trial 2: significant (p<0.05) differences in distance
[1]; low dose diet 0.004% (2.5 mg/kg body weight), p=0.09
  latency to find the platform, Trial 1 vs Trial 2: tended to improve from Trial 1 to Trial 2
[1]; pterostilbene diets (low and high dose)
  spatial memory performance compared to control diet fed group: improved spatial memory performance
cyclooxygenase-1
  inhibition of cyclooxygenase-1: moderate inhibition
cyclooxygenase-2
  inhibition of cyclooxygenase-2: weak inhibition
[2]
  activation of PPARα: identified to activate
[3]
  expression of iNOS: inhibits the expression of inducible nitric oxide synthase (iNOS)
[4]
  antioxidant activity: antioxidant activity similar to that of resveratrol
